Results on one molecule are retold here after PMC7352571, “New Anti-Cancer Strategy to Suppress Colorectal Cancer Growth Through Inhibition of ATG4B and Lysosome Function” (Cancers, 2020).

Structures are written as SMILES. pIC50: −log10 of the molar value.

For orientation: pIC50 means −log10 of the IC50, conventionally taken in molar units.

Data set [1] relates to SQSTM1 in HeLa cells. In words: immunostaining of SQSTM1 dots. To be noted: 10 µM, 6 h.
Data set [2] relates to MGC803 cells. The experiment in a line: CCK-8 cell viability assay, MGC803. In kind it is cell-based. To be noted: Homo sapiens, MGC-803; CCK-8 assay, 48 h. On the procedure: (§1) Cells were seeded and incubated overnight in 96-well plates at a density of 5 × 10^3 cells/well. […] A total of 10 µL CCK-8 were added to each well for additional 1 h and cell viability was measured by CCK-8 assay. Absorbance was measured at 450 nm. The IC50 values were calculated by GraphPad Prism 7 (GraphPad Software Inc., San Diego, CA, USA).
In general terms: Formazan colour is commonly taken as a measure of viable cells.

Data set [3] has as its system LC3-II in HeLa cells. In words: western blot for LC3 conversion, HeLa. In kind it is cell-based. Conditions: 1, 5, 10, 20 µM for 6 h; 10 µM time course. How it is done: (§2) Figure S2. 163N could inhibit autophagy flux. (A) HeLa cells treated with different concentrations of
(§3) II/TUBA was calculated using ImageJ software.
(§4) was examined. The number of GFP-LC3B dots was quantified. Data are presented as mean ± SEM
(§5) was performed to assess cell viability. […]
In general terms: In western blotting, separated proteins are transferred to a membrane and probed.

Data set [4] relates to L02 cells. In words: CCK-8 cell viability assay, normal cells L02. Conditions: at a higher concentration (40 µM), 48 h. In kind it is cell-based. How it is done:
as §1, §2, §3, §4, §5

Data set [5] concerns HCT116 xenograft. In words: HCT116 mouse xenograft model. Format: in vivo, mice. How it is done: Figure 7 163N inhibits tumor growth in a HCT116 mouse xenograft model. (A) HCT116 cells ([…]) were injected subcutaneously into the right flank of the immunodeficient nu/nu female mice. Seven days after tumor cell implantation, mice with palpable tumors were divided randomly into two groups and injected intraperitoneal on Monday, Wednesday, and Friday with either corn oil vehicle or 163N (50 mg/kg). Tumor volumes were calculated by the length and width measured by Vernier calipers every 2 d. (B) Body weight changes of mice during 28 d of exposure. (C) Tumor tissues were sectioned and subjected to H&E staining and immunohistochemistry for evaluating histological morphology, and expression of LC3B and SQSTM1. Scale bar: 50 µm. (D) TEM was used to detect the ultrastructure of the representative tumor tissues. Red arrows represent normal autolysosome structures. Data are presented as mean ± SEM. ** p < 0.01 vs VC.
The animal experimental procedures were approved by the Research Ethics Committee of Sun Yat-sen University (Guangzhou, China), ethic code: SYSU-IACUC-2018-000134. Four-week-old immunodeficient mice (nu/nu, female) were raised in a pathogen-free environment in the Experimental Animal Center of Sun Yat-sen University. Human colorectal cancer HCT116 cells (3 × 10^6) were injected subcutaneously into the right flank of the animals. Seven days after tumor cell implantation, mice with palpable tumors were divided randomly into two groups and injected intraperitoneal on Monday, Wednesday, and Friday of the following treatments: (1) vehicle control (corn oil); (2) 163N (50 mg/kg body weight) dissolved in corn oil. Tumors were measured using calipers and the tumor volume (mm^3) was calculated as follows: V = (L × W2)/2, L and W represents tumor length and width, respectively. At the end of the experiment (5 weeks after tumor implantation), the mice were given 200 µL of pentobarbital sodium (1%) by i.p. 30 min before sacrifice, tumors and organs were collected and weighed.

Data set [6] relates to lysosomal membrane permeabilization in HeLa cells. The experiment in a line: immunostaining, colocalization of cathepsin B and LAMP1. Format: cell-based. Conditions: 10 µM, 6 h. On the procedure: Figure 5 163N causes lysosome dysfunction. […] (C) HeLa cells were treated with or without 163N (10 µM) for 6 h, followed by immunostaining using cathepsin B and LAMP1 antibody. The colocalization of cathepsin B and LAMP1 was measured.
(§6) Immunostaining assay was performed as described previously. Cells were fixed in 4% paraformaldehyde for 15–20 min followed by permeabilization with 0.1% Triton X-100 for another 15 min. Then, PBS containing 5% bovine serum albumin was used for blocking. Primary antibodies (1:150) was used at 4° for one night and then secondary antibodies (1:500) were applied at room temperature for 1 h. EVOS FL Auto (Life Technologies) was used to get the fluorescence images. At least three optical fields with at least 100 cells were analyzed for quantification.

The subject of data set [7] is LC3-II in HCT116 cells. In words: western blot for LC3 conversion, HCT116. Conditions: 1, 5, 10, 20 µM for 6 h; 10 µM time course.
Description: The ratio of LC3B-II/TUBA was calculated using ImageJ software. […] The ratio of LC3B-II/TUBA was calculated using ImageJ software. […] Data are presented as mean ± SEM from three individual experiments. ** p < 0.01, *** p <0.001, ns, not significant.
20–30 µg of whole cell lysates were separated by SDS-PAGE to avoid saturation and transferred to PVDF membranes (Millipore, ISEQ00010, Burlington, MA, USA). After blocking, the membrane was incubated with primary antibodies and secondary antibodies. Specific proteins were detected using enhanced chemiluminescence developing agent (Millipore, WBULS0500). Images were taken using Kodak Image Station 4000 (Carestream Health, Rochester, NY, USA).
For data set [8], the system named is HL60 cells. The experiment in a line: CCK-8 cell viability assay, HL60. Format: cell-based. To be noted: Homo sapiens, HL-60; CCK-8 assay. How it is done: as §1
Data set [9] deals with ATG16L1 KO Hela cells. In words: CCK-8 assay, ATG16L1 KO Hela cells. To be noted: Homo sapiens. Format: cell-based. On the procedure: as §1
Figure S4. The identification of ATG4B knockout HCT116 cells. (A) The genomic DNA of HCT116 cells in the control group transfected with GFP-sgRNA and the experimental group transfected with ATG4B-sgRNA was used as a template for PCR, and the PCR products were used for sequencing. (B) Protein levels of ATG 4B and LC3B in the control and ATG4BKO cells.
Figure S5. 163N induces cell death through targeting autophagy. (A) Hela cells were treated with […]
performed to assess cell proliferation. ( B) Hela cells or ATG16L1 KO Hela cells were treated with […]

In data set [10] the target is ATG4A (Homo sapiens, UniProt Q8WYN0). In words: FRET-based assay for ATG4A activity.
Chain of ATG4A (Q8WYN0 whole entry, species assumed): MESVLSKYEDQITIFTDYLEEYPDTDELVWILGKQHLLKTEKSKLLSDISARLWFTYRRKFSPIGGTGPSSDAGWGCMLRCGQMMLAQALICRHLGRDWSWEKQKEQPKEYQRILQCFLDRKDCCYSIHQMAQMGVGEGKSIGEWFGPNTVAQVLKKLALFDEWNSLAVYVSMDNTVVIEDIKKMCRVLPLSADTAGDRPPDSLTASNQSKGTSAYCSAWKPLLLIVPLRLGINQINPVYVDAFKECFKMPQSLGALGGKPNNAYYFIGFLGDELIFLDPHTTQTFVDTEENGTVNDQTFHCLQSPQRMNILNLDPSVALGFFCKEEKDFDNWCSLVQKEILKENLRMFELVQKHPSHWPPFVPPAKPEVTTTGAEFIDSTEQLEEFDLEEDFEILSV
Description: A FRET-based assay for detecting ATG4B activity was carried out as described [45].
Data set [11] has as its system LC3B and LAMP1 in HeLa cells. The experiment in a line: immunostaining, colocalization of LC3B and LAMP1. Conditions: 10 µM, 6 h. In kind it is cell-based. How it is done:
Figure 4 163N increases the accumulation of autolysosomes. (A) HEK293A cells expressing green fluorescent protein (GFP)-red fluorescent protein (RFP)-LC3 were treated with 163N (10 µM), rapamycin (Rap) (1 µM) or Baf (0.5 µM) for 6 h, then the colocalization of GFP and RFP puncta was detected. […] The colocalization of LC3B and LAMP1 was measured. […] Red arrows indicate normal autolysosome structures. (D) ATG4BKO HeLa cells expressing GFP-LC3[G120] or full length GFP-LC3 were treated with Rap (1 µM), 163N (10 µM), or CQ (40 µM) for 6 h, then the distribution of GFP-LC3 was examined. And the number of GFP-LC3 dots were quantified.
as §6

Data set [12] concerns T98G cells. The experiment in a line: CCK-8 cell viability assay, T98G. In kind it is cell-based. Conditions: Homo sapiens, CCK-8 assay, 48 h. On the procedure: as §1

With `COc1ccc(Nc2cc(C)nc(Nc3ccc(-c4cc5ccccc5o4)cc3)n2)cc1` [Compound 163N], in [1], the “degradation of autophagic substrate SQSTM1” value is recorded as “significantly attenuated the degradation of the autophagic substrate SQSTM1”. Besides, the pIC50 is 5.03 in data set [2]; 4.90 in data set [8]; 4.91 in data set [9]; 4.27 in [10]; 5.14 in data set [12]. The “LC3-II level, HeLa” value in [3] was “dose- and time-dependent accumulation of LC3-II”. Moreover, the “cell viability of normal cells L02” value in data set [4] is reported as “reduce the cell viability”. Also, in data set [5] (50 mg/kg intraperitoneal), the “LC3B and SQSTM1 in tumor tissue by immunohistochemistry” value was “increased levels of LC3B and SQSTM1”. The tumor growth result in data set [5] (50 mg/kg intraperitoneal Mon/Wed/Fri, nu/nu female mice, vs vehicle) was “less prominent”. For the same molecule, the body weight result in [5] (50 mg/kg intraperitoneal, 28 d, vs vehicle) is recorded as “no significant changes in body weight”. Moreover, the “weight index and morphology of heart, liver, spleen, lung, kidney” value in data set [5] (50 mg/kg intraperitoneal, vs vehicle) is given as “no significant changes in weight index”. Besides, the “lysosomal membrane permeabilization (cathepsin B/LAMP1 colocalization)” value in data set [6] is recorded as “did not produce lysosomal membrane permeabilization”. Besides, in [7], the “LC3-II level, HCT116” value was “dose- and time-dependent accumulation of LC3-II”. The “LC3 puncta and co-localization with LAMP1” value in data set [11] is “remarkable increase of LC3 puncta, which were well co-localized with LAMP1”.
